According to ChEMBL document CHEMBL3885881, “DrugMatrix”:

Species: Rattus norvegicus
Experiment: DrugMatrix - Regimen: Daily Repeat
Format: toxicity, organism-based, Sprague-Dawley
Set-up: regimen Daily Repeat, gender Male, age 6-8 weeks
Settings: in vivo, po, route oral GAVAGE, vehicle .5 % CMC; for ABSOLUTE BASOPHIL / ABSOLUTE EOSINOPHIL / ABSOLUTE LYMPHOCYTE / ABSOLUTE MONOCYTE / ABSOLUTE SEGMENTED NEUTROPHIL / BASOPHIL / EOSINOPHIL / ERYTHROCYTE COUNT / HEMATOCRIT / HEMOGLOBIN / LEUKOCYTE COUNT / LYMPHOCYTE / MEAN CORPUSCULAR HEMOGLOBIN / MEAN CORPUSCULAR HEMOGLOBIN CONCENTRATION / MEAN CORPUSCULAR VOLUME / MONOCYTE / NEUTROPHIL / NUCLEATED RED BLOOD CELLS / PLATELET COUNT: tissue Blood; for ALANINE AMINOTRANSFERASE / ALBUMIN / ALKALINE PHOSPHATASE / ASPARTATE AMINOTRANSFERASE / BLOOD UREA NITROGEN / CARBON DIOXIDE / CHLORIDE / CHOLESTEROL / CREATINE PHOSPHOKINASE / CREATININE / GLUCOSE / LACTATE DEHYDROGENASE / LIPASE / PHOSPHORUS / POTASSIUM / SODIUM / TOTAL BILIRUBIN / TOTAL PROTEIN / URIC ACID: tissue Plasma
[1] = 10 mg/kg, 120 h, dose level Low, time 5 day
[2] = 2500 mg/kg, 72 h, dose level High, time 3 day
[3] = 2500 mg/kg, 120 h, dose level High, time 5 day

O=C1CN=C(c2ccccc2Cl)c2cc([N+](=O)[O-])ccc2N1 [CLONAZEPAM]
ABSOLUTE BASOPHIL [1]: 0 CELLS/uL | ABSOLUTE EOSINOPHIL [1]: 31 CELLS/uL | ABSOLUTE LYMPHOCYTE [1]: 8153 CELLS/uL | ABSOLUTE MONOCYTE [1]: 62 CELLS/uL | ABSOLUTE SEGMENTED NEUTROPHIL [1]: 620.67 CELLS/uL | BASOPHIL [1]: 0% | EOSINOPHIL [1]: 0.33% | ERYTHROCYTE COUNT [1]: 5.74 x10E6/uL | HEMATOCRIT [1]: 35.3% | HEMOGLOBIN [1]: 13.87 G/DL | LEUKOCYTE COUNT [1]: 8.87 x10E3/uL | LYMPHOCYTE [1]: 91.67% | MEAN CORPUSCULAR HEMOGLOBIN [1]: 24.13 pg | MEAN CORPUSCULAR HEMOGLOBIN CONCENTRATION [1]: 39.3 G/DL | MEAN CORPUSCULAR VOLUME [1]: 61.43 fL | MONOCYTE [1]: 0.67% | NEUTROPHIL [1]: 7.33% | NUCLEATED RED BLOOD CELLS [1]: 0 /100WBC | PLATELET COUNT [1]: 1168 x10E3/uL | ALANINE AMINOTRANSFERASE [1]: 54 u/L | ALBUMIN [1]: 4.33 G/DL | ALKALINE PHOSPHATASE [1]: 274.67 u/L | ASPARTATE AMINOTRANSFERASE [1]: 97 u/L | BLOOD UREA NITROGEN [1]: 18.67 mg/dL | CARBON DIOXIDE [1]: 25.67 mmol/L | CHLORIDE [1]: 98.67 MEQ/L | CHOLESTEROL [1]: 75.33 mg/dL | CREATINE PHOSPHOKINASE [1]: 826.67 u/L | CREATININE [1]: 0.19 mg/dL | GLUCOSE [1]: 177.67 mg/dL | LACTATE DEHYDROGENASE [1]: 201 u/L | LIPASE [1]: 10 u/L | PHOSPHORUS [1]: 11.6 mg/dL | POTASSIUM [1]: 5.92 MEQ/L | SODIUM [1]: 138.97 MEQ/L | TOTAL BILIRUBIN [1]: 0.13 mg/dL | TOTAL PROTEIN [1]: 6.07 G/DL | URIC ACID [1]: 1.63 mg/dL | ABSOLUTE BASOPHIL [2]: 0 CELLS/uL | ABSOLUTE EOSINOPHIL [2]: 0 CELLS/uL | ABSOLUTE LYMPHOCYTE [2]: 8925.67 CELLS/uL | ABSOLUTE MONOCYTE [2]: 256 CELLS/uL | ABSOLUTE SEGMENTED NEUTROPHIL [2]: 1951.67 CELLS/uL | BASOPHIL [2]: 0% | EOSINOPHIL [2]: 0% | ERYTHROCYTE COUNT [2]: 5.85 x10E6/uL | HEMATOCRIT [2]: 36.6% | HEMOGLOBIN [2]: 14.27 G/DL | LEUKOCYTE COUNT [2]: 11.13 x10E3/uL | LYMPHOCYTE [2]: 79% | MEAN CORPUSCULAR HEMOGLOBIN [2]: 24.47 pg | MEAN CORPUSCULAR HEMOGLOBIN CONCENTRATION [2]: 39.03 G/DL | MEAN CORPUSCULAR VOLUME [2]: 62.67 fL | MONOCYTE [2]: 2.33% | NEUTROPHIL [2]: 18.67% | NUCLEATED RED BLOOD CELLS [2]: 0.33 /100WBC | PLATELET COUNT [2]: 1190 x10E3/uL | ALANINE AMINOTRANSFERASE [2]: 88.33 u/L | ALBUMIN [2]: 3.97 G/DL | ALKALINE PHOSPHATASE [2]: 322 u/L | ASPARTATE AMINOTRANSFERASE [2]: 132 u/L | BLOOD UREA NITROGEN [2]: 19.33 mg/dL | CARBON DIOXIDE [2]: 31.33 mmol/L | CHLORIDE [2]: 100.33 MEQ/L | CHOLESTEROL [2]: 88.67 mg/dL | CREATINE PHOSPHOKINASE [2]: 910.33 u/L | CREATININE [2]: 0.49 mg/dL | GLUCOSE [2]: 134.33 mg/dL | LACTATE DEHYDROGENASE [2]: 213.67 u/L | LIPASE [2]: 11.33 u/L | PHOSPHORUS [2]: 13.77 mg/dL | POTASSIUM [2]: 6.47 MEQ/L | SODIUM [2]: 143.17 MEQ/L | TOTAL BILIRUBIN [2]: 0.2 mg/dL | TOTAL PROTEIN [2]: 5.7 G/DL | URIC ACID [2]: 0.57 mg/dL | ABSOLUTE BASOPHIL [3]: 0 CELLS/uL | ABSOLUTE EOSINOPHIL [3]: 0 CELLS/uL | ABSOLUTE LYMPHOCYTE [3]: 10757.67 CELLS/uL | ABSOLUTE MONOCYTE [3]: 124 CELLS/uL | ABSOLUTE SEGMENTED NEUTROPHIL [3]: 1618.33 CELLS/uL | BASOPHIL [3]: 0% | EOSINOPHIL [3]: 0% | ERYTHROCYTE COUNT [3]: 5.66 x10E6/uL | HEMATOCRIT [3]: 34.97% | HEMOGLOBIN [3]: 14.27 G/DL | LEUKOCYTE COUNT [3]: 12.5 x10E3/uL | LYMPHOCYTE [3]: 85.67% | MEAN CORPUSCULAR HEMOGLOBIN [3]: 25.23 pg | MEAN CORPUSCULAR HEMOGLOBIN CONCENTRATION [3]: 40.83 G/DL | MEAN CORPUSCULAR VOLUME [3]: 61.8 fL | MONOCYTE [3]: 1% | NEUTROPHIL [3]: 13.33% | NUCLEATED RED BLOOD CELLS [3]: 0 /100WBC | PLATELET COUNT [3]: 964.33 x10E3/uL | ALANINE AMINOTRANSFERASE [3]: 84 u/L | ALBUMIN [3]: 3.93 G/DL | ALKALINE PHOSPHATASE [3]: 331.67 u/L | ASPARTATE AMINOTRANSFERASE [3]: 114 u/L | BLOOD UREA NITROGEN [3]: 19 mg/dL | CARBON DIOXIDE [3]: 27 mmol/L | CHLORIDE [3]: 102.33 MEQ/L | CHOLESTEROL [3]: 93 mg/dL | CREATINE PHOSPHOKINASE [3]: 261 u/L | CREATININE [3]: 0.2 mg/dL | GLUCOSE [3]: 136.67 mg/dL | LACTATE DEHYDROGENASE [3]: 217.67 u/L | LIPASE [3]: 10.33 u/L | PHOSPHORUS [3]: 9.8 mg/dL | POTASSIUM [3]: 5.43 MEQ/L | SODIUM [3]: 142.37 MEQ/L | TOTAL BILIRUBIN [3]: 0.2 mg/dL | TOTAL PROTEIN [3]: 5.73 G/DL | URIC ACID [3]: 1.13 mg/dL
